Data taken from the NIST ThermoML archive (doi:10.1021/acs.jced.8b01196).

Assays:
[1] = Liquid; for mass density: 101.33 kPa, Vibrating tube method; for vapor or sublimation pressure: Ebulliometric method (Recirculating still)
[2] = refractive index (Na D-line) (dimensionless); conditions: 101.33 kPa, Liquid, Standard Abbe refractometry
[3] = Boiling temperature at pressure P; conditions: Liquid, Ebulliometric method (Recirculating still)

CCC(=O)C(C)=O [2,3-pentanedione]
Conditions | Boiling temperature at pressure P [°C] | mass density [kg/m3] | refractive index | vapor or sublimation pressure [kPa]
[1], 292.15 K | – | 982 | – | –
[1], 382.52 K | – | – | – | 100
[1], 395.74 K | – | – | – | 150
[1], 405.62 K | – | – | – | 200
[2], 292.15 K | – | – | 1.412 | –
[3], 15.33 kPa | 58.52 | – | – | –
[3], 30.35 kPa | 74.90 | – | – | –
[3], 45.32 kPa | 85.6 | – | – | –
[3], 50.34 kPa | 88.2 | – | – | –
[3], 60.35 kPa | 93.66 | – | – | –
[3], 65.35 kPa | 96.10 | – | – | –
[3], 75.35 kPa | 100.40 | – | – | –
[3], 90.29 kPa | 106.11 | – | – | –
[3], 100.75 kPa | 109.37 | – | – | –
[3], 105.45 kPa | 111.8 | – | – | –
[3], 120.51 kPa | 115.89 | – | – | –
[3], 135.32 kPa | 118.22 | – | – | –
[3], 150.5 kPa | 122.59 | – | – | –
[3], 165.5 kPa | 125.8 | – | – | –
[3], 180.57 kPa | 128.56 | – | – | –
[3], 195.59 kPa | 129.97 | – | – | –
[3], 200.68 kPa | 132.47 | – | – | –

CC=O [ethanal]
Conditions | Boiling temperature at pressure P [°C] | refractive index | vapor or sublimation pressure [kPa]
[1], 293.52 K | – | – | 100
[1], 304.31 K | – | – | 150
[1], 312.98 K | – | – | 200
[2], 293.15 K | – | 1.337 | –
[3], 100.68 kPa | 20.37 | – | –
[3], 105.38 kPa | 21.58 | – | –
[3], 115.48 kPa | 23.93 | – | –
[3], 135.54 kPa | 28.19 | – | –
[3], 150.37 kPa | 31.16 | – | –
[3], 165.44 kPa | 33.89 | – | –
[3], 180.92 kPa | 36.44 | – | –
[3], 195.74 kPa | 39 | – | –
[3], 200.79 kPa | 39.83 | – | –
[3], 210.95 kPa | 41.10 | – | –
[3], 225.32 kPa | 43.23 | – | –
[3], 240.4 kPa | 45.2 | – | –

CC(C)=O [acetone]
Conditions | Boiling temperature at pressure P [°C] | mass density [kg/m3] | refractive index | vapor or sublimation pressure [kPa]
[1], 298.15 K | – | 785 | – | –
[1], 328.89 K | – | – | – | 100
[1], 341.5 K | – | – | – | 150
[1], 350.57 K | – | – | – | 200
[2], 293.15 K | – | – | 1.359 | –
[3], 40.32 kPa | 31.47 | – | – | –
[3], 50.34 kPa | 37.0 | – | – | –
[3], 60.36 kPa | 41.64 | – | – | –
[3], 70.3 kPa | 45.74 | – | – | –
[3], 80.32 kPa | 49.40 | – | – | –
[3], 90.34 kPa | 52.70 | – | – | –
[3], 100.38 kPa | 55.74 | – | – | –
[3], 120.34 kPa | 61.20 | – | – | –
[3], 140.53 kPa | 65.91 | – | – | –
[3], 150.68 kPa | 68.4 | – | – | –
[3], 160.33 kPa | 70.12 | – | – | –
[3], 180.53 kPa | 73.92 | – | – | –
[3], 200.55 kPa | 77.42 | – | – | –
[3], 220.29 kPa | 80.67 | – | – | –
